Experimental data published in patent publication US20090286799A1, “METHODS FOR THE TREATMENT OF BRAIN EDEMA” (priority 2008, published 2009).

What was measured:
[1] = molecular target: T1, Recombinant human pro-MMP-9 (Homo sapiens, UniProt P14780); test: MMP Assay Kit (5-FAM/QXL520 FRET peptide) for MMP-9 bioactivity; type: biochemical; conditions: final concentration of PAN-811 1 mM, calcium 0.4 mM, 30 min room temperature
T1 construct: purchased AnaSpec 72009
Excerpt: The principle behind this analysis is as follows. A 5-FAM/QXL™520 fluorescence resonance energy transfer (FRET) peptide is used as a substrate for MMP. The fluorescence of 5-FAM is quenched by QXL™520 in intact FRET peptide. However, upon cleavage of FRET into two separate fragments by MMP, in the presence of Ca^2+, the fluorescence of 5-FAM is recovered, and can be monitored at excitation/emission wavelengths of […]/520 nm with a fluorometer. Thus, an inhibitor of MMP-9 could suppress the cleavage of FRET by MMP-9 and decrease the fluorescence intensity of 5-FAM. To test the effect of PAN-811 on the bioactivity of MMP-9, black 96-well plates (Cat #3603, Costar®), Corning Inc.) were pre-warmed at 37° C. 4-aminophenylmercuric acetate (APMA) was diluted 20-fold with assay buffer (both in MMP assay kit) to a final concentration of […]. Recombinant human pro-MMP-9 (10 μg/ml, Cat #72009, AnaSpec, San Jose) was pre-incubated with 1 mM APMA at 37° C. for 2 hours to activate this enzyme. […] Treated wells were incubated at room temperature for 30 min and the fluorescence intensity of 5-FAM was determined for each sample by measurement at excitation/emission wavelengths of 485 nm/520 nm with a fluorometer and reported in RFU (FIGS. 6A and 6B). […]

[2] = test system: Middle Cerebral Artery Occlusion (MCAo) rats; test: Middle cerebral artery occlusion (MCAo) rat model: infarct volume, edema volume, premature mortality; type: in vivo, male Sprague-Dawley rats
Procedure: For Middle Cerebral Artery Occlusion (MCAo), male Sprague-Dawley rats (270 to 330 g) were anesthetized with gaseous isoflurane. With aseptic surgical techniques, a laser-Doppler probe was placed on the right temporal-lateral portion of the skull over a region of the cortex which is supplied by the middle cerebral artery to record cerebral blood flow (CBF). CBF was recorded before and after arterial occlusion. The bifurcation of the right external common carotid 8 artery (ECA) and internal common carotid artery (ICA) was surgically exposed. A 4-0 monofilament suture treated with a silicone coating to enlarge the tip to better achieve an arterial block was placed into the ECA stump, and advanced up the ICA approximately 20 mm until a drop in CBF of approximately 75% or greater was measured by laser Doppler flowmetry (PeriFlux PF5010, Perimed). The duration of the ischemia was 120 minutes.
PAN-811 was originally dissolved to a concentration of 25.6 mmol/L in 7% (v/v) polyethylene glycol (PEG) 300, 3% ethanol (EtOH), 28.6 mmol/L citric acid and 5.7 mmol/L L-ascorbic acid solution. 25.6 mmol/L was the highest concentration of PAN-811 used for dosing. This solution was further diluted with normal saline to produce dosing solutions of 2.56 mmol/L, 5.12 mmol/L, and 10.2 mmol/L on the day of surgery. Vehicle dosing solutions were identical in components to the 5.12 mmol/L PAN-811 group (Vehicle Low), or the 10.2 mmol/L group (Vehicle High). These treatments were delivered intravenously route into MCAo rats at reperfusion time. […]
After 22 hours of treatment, the animals were sacrificed by CO2 asphyxiation, and their brains sectioned at 2 mm intervals. […] Brain areas were traced and measured using a computerized image analysis system (SimplePCI Version 4.0.0, Compix Inc) to determine infarct volume (in cubic millimeters, mm^3), whereby unstained areas were defined as ischemic lesions of infarcted tissue.
Ischemic stroke often results in brain edema (Ayata et al., 2002). Therefore, the volumes for both ipsilateral and contralateral side hemispheres of MCAo rats were measured 22 hours later, and the edema volumes (hemisphere volume of the ipsilateral side hemisphere volume of contralateral one) were calculated, and expressed as mean±SEM (FIG. 1B). […]
Brain edema can result in death of MCAo rats. Therefore, the mortalities for vehicle groups and PAN-811 treated groups, as explained in Examples 1 and 2, were counted (FIG. 1C). Mortalities of general vehicle treated groups (open bar) and collective PAN-811 treated groups (black bar) were determined and premature death rates were expressed as percentage of total animal number in each condition. […]

T1 sequence (P14780 107-707 limits assumed): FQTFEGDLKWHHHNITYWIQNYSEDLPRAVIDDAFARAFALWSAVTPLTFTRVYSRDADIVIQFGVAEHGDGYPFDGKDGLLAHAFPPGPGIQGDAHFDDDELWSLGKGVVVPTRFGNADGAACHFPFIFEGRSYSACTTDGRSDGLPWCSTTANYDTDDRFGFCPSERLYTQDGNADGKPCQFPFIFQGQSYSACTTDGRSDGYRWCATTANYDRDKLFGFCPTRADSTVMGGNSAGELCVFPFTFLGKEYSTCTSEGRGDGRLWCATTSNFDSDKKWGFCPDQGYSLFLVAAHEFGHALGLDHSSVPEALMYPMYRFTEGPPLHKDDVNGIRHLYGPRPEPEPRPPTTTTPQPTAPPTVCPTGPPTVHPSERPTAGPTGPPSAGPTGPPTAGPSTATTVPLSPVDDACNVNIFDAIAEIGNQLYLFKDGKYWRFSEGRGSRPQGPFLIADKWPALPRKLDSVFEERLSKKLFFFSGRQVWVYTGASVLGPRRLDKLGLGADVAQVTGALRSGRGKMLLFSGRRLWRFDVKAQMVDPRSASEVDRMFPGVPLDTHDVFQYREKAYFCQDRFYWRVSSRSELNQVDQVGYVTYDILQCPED

## NC(=S)N/N=C/c1ncccc1N [PAN-811, 3-aminopyridine-2-carboxaldehyde thiosemicarbazone]
[1]
  suppression of pro-MMP-9-catalyzed increase in fluorescence intensity: 64%
[2]; 2 mg/kg i.v., compared to the high vehicle group, 22 hours
  reduction in edema volume: 70%
[2]; 5 mg/kg i.v., compared with High vehicle group, 22 hours (data not shown)
  reduction in edema volume: 31%
[2]; all PAN-811 treated groups (9 of 57), vehicle groups 28%
  premature mortality rate: 15.8%
[2]; all PAN-811 treated groups versus the 2 vehicle-treated groups
  reduction of premature mortality: 44%
